Source: publication PMC9760430, “A stapled chromogranin A-derived peptide homes in on tumors that express αvβ6 or αvβ8 integrins” (International Journal of Biological Sciences, 2023)

System: human umbilical vein endothelial cells (HUVECs) (αvβ6- and αvβ8-)
Test: binding of peptide-IRDye conjugates to cultured HUVECs
Type: cell-based
Settings: 0.32-200 nM, 1 h, 37 °C; bound NIR fluorescence
Method: To assess the binding of peptide-IRDye conjugates to cells various amounts of conjugates (range 0.32-200 nM) were added to cultured cells and left to incubate for 1 h at 37 °C. After three washings, the cells were fixed and analyzed by scanning the plate with the Odyssey CLx.
A control conjugate with a cysteine in place of the peptide was also prepared in parallel. The identity of the purified products, called 5a-IRDye, 2a-IRDye, and Cys-IRDye, was confirmed by mass spectrometry analysis (Table S1). In addition, the purity and identity of 5a-IRDye was monitored by liquid chromatography–mass spectrometry (LC-MS). […]
that the product consist of a single peak at 230 and 735 nm with the expected molecular weight (purity >95%) (Figure S3A).
The simplified molecular-input line-entry system (SMILES) of 5a-, 2a-, Cys- and 5a-Scr- […]
The concentration of each conjugate was quantified by spectrophotometric analysis at 774 nm (molar absorption coefficient, 240,000 M-1, cm-1) (Figure S3B). […]
The binding of peptide-IRDye conjugates to BxPC-3, 5M7101, and HUVECs cells was analyzed as follows. […]
chloride and 1% BSA (binding buffer) for 5 min. […] Binding of conjugates to cells was quantified by scanning the plate (filled with PBS, 100 µl/well) with the Odyssey CLx (LI-COR) using the above settings, except that the scan focus offset and scan intensity were set to 4 and 8.5, respectively. […]

CC1(C)C(/C=C/C2=C(Oc3ccc(S(=O)(=O)O)cc3)C(=C\C=C3/N(CCCCCC(=O)NCCN4C(=O)CC(SC[C@H](N)C(=O)O)C4=O)c4ccc(S(=O)(=O)O)cc4C3(C)C)/CCC2)=[N+](CCCCS(=O)(=O)O)c2ccc(S(=O)(=O)[O-])cc21 (stereo partly shown) [Cys-IRDye]
binding of conjugate to HUVECs: little or no binding
